In the supplement of paper PMC5908809:

Experiments:
Assay in all cases: relative IC50 (inflection point of fitted viability curve, relative to fitted max inhibition); higher = less sensitive
Conditions in all cases: 72 h
IMC-1 (IL-2 20 ng/mL) = test system: IMC-1 (IL-2 20 ng/mL)
Protocol: (§1)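 Drug sensitivity and resistance testing: 5 concentrations over a 10,000-fold range, 72 h at 37 °C, viability by CellTiter-Glo normalised to DMSO and benzethonium chloride controls. IC50 is the inflection point of a logistic fit (min fixed at 0, max fitted), so it is relative to the fitted maximal inhibition. Kept only where fitted max inhibition is at least 50%.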

KHYG-1 (IL-2 2.5 ng/mL) = test system: KHYG-1 (IL-2 2.5 ng/mL)
Protocol: as §1

NK-YS (IL-2 2.5 ng/mL) = test system: NK-YS (IL-2 2.5 ng/mL)
Protocol: as §1

NKL (IL-2 2.5 ng/mL) = test system: NKL (IL-2 2.5 ng/mL)
Protocol: as §1

[1] = test system: normal primary NK cells, pool 1 (3 donors) (IL-2 2.5 ng/mL)
Protocol: as §1

[2] = test system: normal primary NK cells, pool 1 (3 donors), resting (IL-2 0 ng/mL)
Protocol: as §1

DERL-7 (IL-2 2.5 ng/mL) = test system: DERL-7 (IL-2 2.5 ng/mL)
Protocol: as §1

KAI3 (IL-2 2.5 ng/mL) = test system: KAI3 (IL-2 2.5 ng/mL)
Protocol: as §1

NK-92 (IL-2 2.5 ng/mL) = test system: NK-92 (IL-2 2.5 ng/mL)
Protocol: as §1

SNK-6 (IL-2 2.5 ng/mL) = test system: SNK-6 (IL-2 2.5 ng/mL)
Protocol: as §1

YT (IL-2 2.5 ng/mL) = test system: YT (IL-2 2.5 ng/mL)
Protocol: as §1

[3] = test system: normal primary NK cells, pool 3 (3 donors) (IL-2 2.5 ng/mL)
Protocol: as §1

[4] = test system: normal primary NK cells, pool 2 (3 donors) (IL-2 2.5 ng/mL)
Protocol: as §1

Compound | relative IC50 (IMC-1 (IL-2 20 ng/mL)) | relative IC50 (KHYG-1 (IL-2 2.5 ng/mL)) | relative IC50 (NK-YS (IL-2 2.5 ng/mL)) | relative IC50 (NKL (IL-2 2.5 ng/mL)) | relative IC50 [1] | relative IC50 [2] | relative IC50 (DERL-7 (IL-2 2.5 ng/mL)) | relative IC50 (KAI3 (IL-2 2.5 ng/mL)) | relative IC50 (NK-92 (IL-2 2.5 ng/mL)) | relative IC50 (SNK-6 (IL-2 2.5 ng/mL)) | relative IC50 (YT (IL-2 2.5 ng/mL)) | relative IC50 [3] | relative IC50 [4]
FC(F)(F)c1ccc(/C=C/c2nc(COc3ccc(CCCCn4ccnn4)cc3)co2)cc1 [Mubritinib] | 11.2 nM | 45.7 nM | 42 nM | 56 nM | 12.2 nM | 12 nM | – | – | – | – | – | – | –
O=c1[nH]c(=O)n([C@H]2C[C@H](O)[C@@H](CO)O2)cc1F [Floxuridine] | 128 nM | 8.42 nM | 28.9 nM | 75.2 nM | – | – | 31 nM | 10.1 nM | 19.5 nM | 68.6 nM | 286 nM | > 10000 nM | –
Cc1cc(Nc2cc(CN3CCOCC3)c3nc(C)c(Cc4ccc(Cl)cc4F)n3n2)n[nH]1 [Gandotinib] | 1260 nM | 107 nM | 260 nM | 75 nM | 362 nM | – | 163 nM | 89.6 nM | 236 nM | 230 nM | 448 nM | 669 nM | 183 nM
CCS(=O)(=O)N1CC(CC#N)(n2cc(-c3ncnc4[nH]ccc34)cn2)C1 [Baricitinib] | 451 nM | 26.2 nM | 63.5 nM | 12 nM | 46.9 nM | – | 51.9 nM | 18.4 nM | 95.8 nM | 73.3 nM | 163 nM | 124 nM | 54.4 nM
COc1cc2c(cc1O)CC[C@@H]1[C@@H]2CC[C@]2(C)[C@@H](O)CC[C@@H]12 [2-methoxyestradiol] | 791 nM | 319 nM | 260 nM | 243 nM | – | – | 589 nM | 442 nM | 153 nM | 263 nM | 373 nM | – | –
C=CC[C@@H]1/C=C(\C)C[C@H](C)C[C@H](OC)[C@H]2O[C@@](O)(C(=O)C(=O)N3CCCC[C@H]3C(=O)O[C@H](/C(C)=C/[C@@H]3CC[C@@H](O)[C@H](OC)C3)[C@H](C)[C@@H](O)CC1=O)[C@H](C)C[C@@H]2OC [Tacrolimus] | – | – | – | – | – | 1620 nM | – | – | – | – | – | – | –
O=C(O)c1ccc(Nc2ncc3c(n2)-c2ccc(Cl)cc2C(c2c(F)cccc2F)=NC3)cc1 [MLN-8054] | 1540 nM | 259 nM | 125 nM | 107 nM | – | – | 763 nM | 291 nM | 563 nM | 73.6 nM | 190 nM | – | –
COCC1(CO)C(=O)C2CCN1CC2 (configuration not stated) [APR-246] | – | – | – | – | 566 nM | 277 nM | – | – | – | – | – | 442 nM | 393 nM
CCCOc1ccn2c(C(C)=O)cc(-c3ccccc3S(C)(=O)=O)c2c1 [GSK2801] | > 10000 nM | – | – | – | – | – | – | – | – | – | – | – | –
S=P(N1CC1)(N1CC1)N1CC1 [Thio-TEPA] | – | – | – | 4100 nM | – | – | – | 4010 nM | – | – | – | – | –
COc1cc(Nc2ncc3c(n2)-c2ccc(Cl)cc2C(c2c(F)cccc2OC)=NC3)ccc1C(=O)O [Alisertib] | 116 nM | 50.5 nM | 22 nM | 52.5 nM | – | – | 28.2 nM | 116 nM | 41.3 nM | 39.5 nM | 91.9 nM | – | –
COc1ncc(-c2ccc3nccc(-c4ccnnc4)c3c2)cc1NS(=O)(=O)c1ccc(F)cc1F [Omipalisib] | – | 114 nM | 39.5 nM | 57.5 nM | – | – | 11.1 nM | 11.4 nM | 11.2 nM | 101 nM | 29 nM | – | –
O=C(O)c1ccc(O)c2ncccc12 [IOX-1] | 37400 nM | 28400 nM | 32200 nM | 29100 nM | – | – | 21600 nM | 17000 nM | 26400 nM | 20200 nM | 32700 nM | – | –
NCC(=O)Nc1ccc(-n2nc(C(F)(F)F)cc2-c2ccc3c(ccc4ccccc43)c2)cc1 | 4370 nM | 1310 nM | 1980 nM | 4070 nM | – | – | – | 4900 nM | 4950 nM | 3810 nM | 5540 nM | 7230 nM | 7200 nM
Cc1cc(C(=O)NOCCO)c(Nc2ccc(I)cc2F)n(C)c1=O [AZD-8330] | – | 13 nM | – | 10.2 nM | – | – | – | – | > 10000 nM | > 10000 nM | – | – | –
CC(C)C[C@@H](C(=O)N[C@H](C(=O)OC1CCCC1)c1ccccc1)[C@H](O)C(=O)NO [Tosedostat] | – | 606 nM | – | 1960 nM | 942 nM | 274 nM | 23.3 nM | – | – | – | 1520 nM | – | 903 nM
COc1cc2c(Nc3ccc(Cl)c(Cl)c3F)ncnc2cc1OC[C@@H]1C[C@@H]2CN(C)C[C@@H]2C1 [XL-647] | – | – | – | 133 nM | – | 157 nM | – | – | 183 nM | – | – | – | –
CC1=C(/C=C/C(C)=C/C=C/C(C)=C/C(=O)O)C(C)(C)CCC1 [Tretinoin] | > 10000 nM | – | – | – | – | – | – | – | – | – | – | > 10000 nM | –
C#Cc1cccc(Nc2ncnc3cc4c(cc23)OCCOCCOCCO4)c1 [Icotinib] | – | – | – | – | – | – | – | – | 1970 nM | – | – | – | –
N#CC(c1ccnc(OCc2ccc(CN3CCOCC3)cc2)n1)c1nc2ccccc2s1 (configuration not stated) [Bentamapimod] | 2230 nM | 1690 nM | – | 1810 nM | – | – | 1440 nM | – | – | – | 1590 nM | – | –
Cn1cc(C2=Nc3cc(NC(=O)C(N)C4CCCCC4)cc4c3C2=CNNC4=O)cn1 (configuration not stated) | 259 nM | 134 nM | 442 nM | 652 nM | 3520 nM | – | 1000 nM | 215 nM | 505 nM | 238 nM | 492 nM | 1960 nM | 2370 nM
O=C(Nc1cccc(Cl)c1)Nc1ncc(CCNc2ncnc3ccsc23)s1 [SNS-314] | 201 nM | 12.4 nM | 37.9 nM | – | – | – | 28.1 nM | – | 61.3 nM | 10.5 nM | – | – | –
CC(C)Oc1ccc(C(=O)N[C@H](CNC(=O)CN(C)C)Cc2ccc(-c3cn4cccc([C@H](C)O)c4n3)cc2)cc1Cl | 261 nM | 123 nM | 56.7 nM | 54.3 nM | – | 4570 nM | 70.3 nM | 439 nM | 204 nM | 24.9 nM | 48.2 nM | – | –
Cc1ccc2nc(CN(CCN(Cc3nc4ccc(C)cc4[nH]3)Cc3nc4ccc(C)cc4[nH]3)Cc3nc4ccc(C)cc4[nH]3)[nH]c2c1 | 8640 nM | 6250 nM | 8980 nM | 2160 nM | 7650 nM | 8020 nM | 8270 nM | 3470 nM | 3900 nM | 18200 nM | 7070 nM | – | –
CC[C@]1(O)C[C@@H]2CN(CCc3c([nH]c4ccccc34)[C@@](C(=O)OC)(c3cc4c(cc3OC)N(C)[C@H]3[C@@](O)(C(=O)OC)[C@H](OC(C)=O)[C@]5(CC)C=CCN6CC[C@]43[C@@H]65)C2)C1 [Vinblastine] | 3.57 nM | 3.44 nM | 6.11 nM | 3.72 nM | – | – | 3.3 nM | 9.24 nM | 7.82 nM | 5.22 nM | 4.62 nM | – | –
